Values joined by “and” are separate entries in the source; they are usually repeats but may differ in a detail not shown here. Equal entries are not always repeated. Toxic doses and inconclusive results are not listed. Cut-off read from the data, not from the text of the source: active = T/C of 150% or more; inactive = T/C below 125%.
Tested on: L1210 leukemia ip in BDF1 mice, survival T/C
Experiment: NCI In Vivo Anticancer Drug Screen. Data for tumor model L1210 Leukemia (intraperitoneal) in B6D2F1 (BDF1) mice
Settings: endpoint: mean survival time, higher = longer survival
Procedure, shortened: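 Value reflects the ratio of survival in compound-treated mice to survival in vehicle-treated controls, with both groups carrying the same transplanted tumor.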

Measured: T/C

O=c1[nH]c(=O)n(C2CC(O)C(CO)O2)cc1C(F)(F)F (stereo unspecified)
active: dose: 9.0 mg/kg/injection, schedule: Q01DX Z (ip), vehicle: saline 153 % of control | dose: 18.0 mg/kg/injection, schedule: Q01DX Z (ip), vehicle: saline 150 % of control | dose: 25.0 mg/kg/injection, schedule: Q01DX015 (ip), vehicle: saline 152 % of control | dose: 25.0 mg/kg/injection, schedule: Q01DX Z (ip), vehicle: saline 160 % of control | dose: 50.0 mg/kg/injection, schedule: Q01DX Z (ip), vehicle: saline 154 % of control | dose: 50.0 mg/kg/injection, schedule: Q01DX Z (sc), vehicle: saline 156 % of control | dose: 64.0 mg/kg/injection, schedule: Q01DX009 (ip), vehicle: water 156 % of control | dose: 65.0 mg/kg/injection, schedule: Q01DX Z (ip), vehicle: water 157 % of control | dose: 100.0 mg/kg/injection, schedule: Q01DX Z (im), vehicle: saline 154 % of control | dose: 107.0 mg/kg/injection, schedule: Q01DX Z (ip), vehicle: water 154 % of control | dose: 128.0 mg/kg/injection, schedule: Q01DX009 (ip), vehicle: water 151 % of control | dose: 150.0 mg/kg/injection, schedule: Q01DX Z (ip), vehicle: saline 159 % of control | dose: 200.0 mg/kg/injection, schedule: Q01DX Z (sc), vehicle: saline 160 % of control | dose: 250.0 mg/kg/injection, schedule: Q01DX Z (ip), vehicle: saline 157 % of control | dose: 256.0 mg/kg/injection, schedule: Q01DX009 (ip), vehicle: saline 150 % of control | dose: 256.0 mg/kg/injection, schedule: Q01DX009 (oral), vehicle: saline 157 % of control | dose: 256.0 mg/kg/injection, schedule: Q03HX016 (ip), vehicle: water 153 % of control | dose: 400.0 mg/kg/injection, schedule: Q01DX Z (im), vehicle: saline 159 % of control | dose: 600.0 mg/kg/injection, schedule: Q02DX009 (ip), vehicle: water 159 % of control | dose: 800.0 mg/kg/injection, schedule: Q01DX006 (iv), vehicle: saline 154 % of control | dose: 1024.0 mg/kg/injection, schedule: Q## X003 (oral), vehicle: saline 156 % of control | dose: 4096.0 mg/kg/injection, schedule: Q## X008 (oral), vehicle: saline 151 % of control
inactive: dose: 0.16 mg/kg/injection, schedule: Q#B X045 (ip), vehicle: saline 109 % of control | dose: 0.33 mg/kg/injection, schedule: Q#B X045 (ip), vehicle: saline 119 % of control | dose: 0.56 mg/kg/injection, schedule: Q01DX Z (ip), vehicle: saline 112 % of control | dose: 0.66 mg/kg/injection, schedule: Q#B X045 (ip), vehicle: saline 122 % of control | dose: 1.12 mg/kg/injection, schedule: Q01DX Z (ip), vehicle: saline 106 % of control | dose: 1.5 mg/kg/injection, schedule: Q01DX Z (sc), vehicle: saline 112 % of control | dose: 2.25 mg/kg/injection, schedule: Q01DX Z (ip), vehicle: saline 118 % of control | dose: 3.0 mg/kg/injection, schedule: Q01DX Z (sc), vehicle: saline 114 % of control | dose: 3.12 mg/kg/injection, schedule: Q01DX Z (im), vehicle: saline 104 % of control | dose: 4.5 mg/kg/injection, schedule: Q01DX Z (ip), vehicle: saline 114 % of control | dose: 6.0 mg/kg/injection, schedule: Q01DX Z (sc), vehicle: saline 118 % of control | dose: 6.25 mg/kg/injection, schedule: Q01DX006 (iv), vehicle: saline 121 % of control | dose: 6.25 mg/kg/injection, schedule: Q01DX015 (ip), vehicle: saline 120 % of control | dose: 12.0 mg/kg/injection, schedule: Q01DX Z (sc), vehicle: saline 118 % of control | dose: 12.5 mg/kg/injection, schedule: Q01DX006 (iv), vehicle: saline 115 % of control | dose: 12.5 mg/kg/injection, schedule: Q01DX Z (oral), vehicle: saline 120 % of control | dose: 18.75 mg/kg/injection, schedule: Q#A X034 (ip), vehicle: water 122 % of control | dose: 20.0 mg/kg/injection, schedule: Q01DX009 (oral), vehicle: saline 116 % of control | dose: 20.0 mg/kg/injection, schedule: Q01DX Z (ip), vehicle: saline 119 % of control | dose: 25.0 mg/kg/injection, schedule: Q01DX Z (oral), vehicle: saline 120 % of control | dose: 38.0 mg/kg/injection, schedule: Q01DX Z (ip), vehicle: water 117 % of control | dose: 40.0 mg/kg/injection, schedule: Q01DX009 (oral), vehicle: saline 121 % of control | dose: 45.0 mg/kg/injection, schedule: Q01DX015 (oral), vehicle: saline 122 % of control | dose: 65.0 mg/kg/injection, schedule: Q01DX015 (oral), vehicle: saline 104 % of control | dose: 100.0 mg/kg/injection, schedule: Q01DX001 (ip), vehicle: saline 106 % of control and 107 % of control | dose: 100.0 mg/kg/injection, schedule: Q01DX015 (oral), vehicle: saline 120 % of control | dose: 100.0 mg/kg/injection, schedule: Q## X001 (ip), vehicle: saline 103 % of control | dose: 128.0 mg/kg/injection, schedule: Q01DX001 (oral), vehicle: saline 112 % of control | dose: 128.0 mg/kg/injection, schedule: Q## X003 (oral), vehicle: saline 119 % of control | dose: 128.0 mg/kg/injection, schedule: Q## X024 (oral), vehicle: saline 115 % of control | dose: 150.0 mg/kg/injection, schedule: Q04DX005 (ip), vehicle: water 118 % of control | dose: 150.0 mg/kg/injection, schedule: Q#A X034 (ip), vehicle: water 124 % of control | dose: 180.0 mg/kg/injection, schedule: Q01DX Z (ip), vehicle: water 122 % of control | dose: 200.0 mg/kg/injection, schedule: Q01DX001 (ip), vehicle: saline 109 % of control | dose: 200.0 mg/kg/injection, schedule: Q## X001 (ip), vehicle: saline 111 % of control | dose: 250.0 mg/kg/injection, schedule: Q01DX001 (ip), vehicle: saline 112 % of control | dose: 251.0 mg/kg/injection, schedule: Q01DX Z (ip), vehicle: saline 108 % of control | dose: 256.0 mg/kg/injection, schedule: Q01DX001 (oral), vehicle: saline 112 % of control | dose: 256.0 mg/kg/injection, schedule: Q04DX003 (ip), vehicle: water 116 % of control | dose: 300.0 mg/kg/injection, schedule: Q01DX001 (ip), vehicle: water 106 % of control | dose: 300.0 mg/kg/injection, schedule: Q01DX017 (ip), vehicle: water 119 % of control | dose: 300.0 mg/kg/injection, schedule: Q01DX Z (ip), vehicle: water 102 % of control | dose: 300.0 mg/kg/injection, schedule: Q01DX Z (oral), vehicle: saline 116 % of control | dose: 300.0 mg/kg/injection, schedule: Q03DX Z (ip), vehicle: saline 118 % of control | dose: 300.0 mg/kg/injection, schedule: Q04DX005 (ip), vehicle: water 123 % of control | dose: 320.0 mg/kg/injection, schedule: Q01DX015 (ip), vehicle: saline 98 % of control | dose: 350.0 mg/kg/injection, schedule: Q01DX Z (ip), vehicle: saline 111 % of control | dose: 351.0 mg/kg/injection, schedule: Q01DX Z (ip), vehicle: saline 114 % of control | dose: 400.0 mg/kg/injection, schedule: Q01DX001 (ip), vehicle: saline 98 % of control and 113 % of control | dose: 400.0 mg/kg/injection, schedule: Q## X001 (ip), vehicle: saline 116 % of control | dose: 480.0 mg/kg/injection, schedule: Q01DX015 (ip), vehicle: saline 98 % of control | dose: 500.0 mg/kg/injection, schedule: Q01DX001 (ip), vehicle: saline 112 % of control | dose: 512.0 mg/kg/injection, schedule: Q01DX001 (oral), vehicle: saline 112 % of control | dose: 512.0 mg/kg/injection, schedule: Q01DX009 (ip), vehicle: saline 117 % of control | dose: 512.0 mg/kg/injection, schedule: Q04DX003 (ip), vehicle: water 120 % of control | dose: 512.0 mg/kg/injection, schedule: Q## X008 (oral), vehicle: saline 121 % of control | dose: 600.0 mg/kg/injection, schedule: Q01DX001 (ip), vehicle: water 107 % of control | dose: 600.0 mg/kg/injection, schedule: Q01DX Z (oral), vehicle: saline 106 % of control | dose: 600.0 mg/kg/injection, schedule: Q04DX005 (ip), vehicle: water 119 % of control | dose: 800.0 mg/kg/injection, schedule: Q01DX001 (ip), vehicle: saline 107 % of control and 116 % of control | dose: 800.0 mg/kg/injection, schedule: Q01DX Z (ip), vehicle: saline 124 % of control | dose: 800.0 mg/kg/injection, schedule: Q01DX Z (oral), vehicle: saline 110 % of control | dose: 800.0 mg/kg/injection, schedule: Q## X001 (ip), vehicle: saline 121 % of control | dose: 1000.0 mg/kg/injection, schedule: Q01DX001 (ip), vehicle: saline 123 % of control | dose: 1024.0 mg/kg/injection, schedule: Q01DX001 (oral), vehicle: saline 121 % of control | dose: 1024.0 mg/kg/injection, schedule: Q01DX009 (oral), vehicle: saline 101 % of control | dose: 1200.0 mg/kg/injection, schedule: Q01DX001 (ip), vehicle: water 104 % of control | dose: 1200.0 mg/kg/injection, schedule: Q01DX Z (im), vehicle: saline 121 % of control | dose: 1200.0 mg/kg/injection, schedule: Q01DX Z (sc), vehicle: saline 115 % of control | dose: 1200.0 mg/kg/injection, schedule: Q04DX005 (ip), vehicle: water 119 % of control | dose: 1600.0 mg/kg/injection, schedule: Q01DX Z (im), vehicle: saline 113 % of control | dose: 1600.0 mg/kg/injection, schedule: Q01DX Z (oral), vehicle: saline 97 % of control | dose: 1600.0 mg/kg/injection, schedule: Q01DX Z (sc), vehicle: saline 107 % of control | dose: 2400.0 mg/kg/injection, schedule: Q01DX001 (ip), vehicle: water 104 % of control

Source: PubChem BioAssay AID248 (DTP/NCI, 2004)
